Patent US12522616B2, “Thiazololactam compound as ERK inhibitor and use thereof” (D3 BIO (WUXI) CO., LTD., priority 2019, dated 2026)

Columns and labels:
HT29 tumor cells = test: Assay of in vitro cell proliferation inhibition (CellTiterGlo); type: cell-based; conditions: Homo sapiens, HT-29
Method: Assay Example 2. Assay of In Vitro Cell Proliferation Inhibition
The ability of compounds to inhibit the proliferation of HT29 tumor cells was measured.
The assay compound was dissolved in 100% DMSO to prepare 10 mM stock solution.
• 1) UV light of a biological safety cabin was turned on, and 30 minutes were counted down; • 2) In a 37° C. water bath, RPMI1640 medium and trypsin were preheated; • 3) After completion of the UV irradiation, the biological safety cabin was opened. • The preheated medium, trypsin and phosphate buffered saline (PBS), etc. were wiped with alcohol and placed in the biological safety cabin; • 4) HT29 cells were removed from the incubator, and the old medium was removed in biological safety cabin. 10 ml of PBS was added. The mixture was shaken gently, and then PBS was removed; • 5) 1.5 ml of preheated 0.25% trypsin was added. The culture vessel was shaken horizontally so that the trypsin evenly covered the cells at the bottom, and placed in an incubator for 2 minutes; • 6) Cell digestion was stopped with complete medium, and the cell suspension was pipetted to homogeneity and counted; • 7) According to the result of cell counting, the density of cell suspension was adjusted to 1500 cells per well, and the cell suspension was seeded at 50 μl per well; • 8) The stock solution of compounds was serially diluted in DMSO solution, and compounds were added to cell plate using Tecan; • 9) The compound-added cell plate and CellTiterGlo were equilibrated at room temperature, and 25 microliters of CellTiterGlo was then added to each well. The cell plate was shaken for 1-2 minutes and then allowed to stand for 10 minutes. The signal value was then detected. The data were analyzed using XL-Fit, and the IC50 of each compound was calculated. 4.

ERK2 kinase = ERK2 kinase (Homo sapiens (Human), UniProt P28482); test: Assay of in vitro kinase activity (33P-ATP filter-binding, MBP substrate); type: biochemical; conditions: remaining kinase activity vs DMSO control
Method: Assay Example 1. Assay of In Vitro Kinase Activity
The ability of compounds to inhibit ERK2 kinase activity was measured.
20 mM Hepes (pH 7.5), 10 mM MgCl2, 1 mM ethylenebis(oxyethylenenitrilo)tetraacetic acid (EGTA), 0.02% Brij35, 0.02 mg/mL bovine serum albumin (BSA), 0.1 mM Na3VO4, 2 mM dithiothreitol (DTT), 1% DMSO.
The assay compound was dissolved in 100% DMSO to prepare a stock solution of specific concentration. The compound was serially diluted in DMSO solution using Integra Viaflo Assist smart pipette.
• 1) The substrate MBP was prepared in freshly prepared reaction buffer; • 2) ERK2 kinase was added to the above-mentioned MBP solution and mixed gently; • 3) The compound dissolved in 100% DMSO was added to the kinase reaction system using ultrasound technology (Echo550; nanoliter range), and the mixture was incubated at room temperature for 20 minutes; • 4)^33P-ATP (specific concentration of […]) was added to the reaction system, and the reaction was started at this time; • 5) The mixture was incubated at room temperature for 2 hours; • 6) The amount of radioactivity was detected by filter-binding method; • 7) ERK2 kinase activity was calculated as the ratio of the remaining kinase activity in the assay sample to the kinase activity of the control group (treated by DMSO). Curve was fitted using Prism (GraphPad software) and IC50 values were calculated. 5.

[1] = In vivo DMPK assay in mouse; conditions: female BALB/c mice; for Oral DNAUC (AUCPO/Dose) / bioavailability / Cmax: 3 mg/kg orally; for clearance / Vd / bioavailability / half-life / Cmax: mouse, plasma; for clearance / Vd: iv; for clearance / Vd / bioavailability: 1 mg/kg intravenously; for clearance: read-out: Cl (clearance rate); for Vd: read-out: Vdss (distribution volume); for bioavailability / Cmax: po; for bioavailability: read-out: F % (oral bioavailability); for half-life: single administration, read-out: T1/2 (half-life) (converted); for Cmax: read-out: Cmax (maximum concentration)
Excerpt: Assay Example 3. Assay of In Vivo DMPK
In vivo DMPK assay in mouse
Female BALB/c mice were used as assay animals to determine the blood concentration of compounds and evaluate the pharmacokinetic behavior after a single administration.
Eight healthy adult female BALB/c mice were selected, wherein 4 mice were in the intravenous injection group and 4 mice were in the oral group. The vehicle in the intravenous injection group was 5% DMSO+95% (20% HP-β-CD). The compound to be assayed was mixed with an appropriate amount of vehicle for intravenous injection, vortexed and sonicated to prepare a clear solution of 0.5 mg/mL. The clear solution was filtered by a microporous membrane, and then ready for use. The vehicle in the oral group was 5% DMSO+95% (20% HP-β-CD). The compound to be assayed was mixed with the vehicle, vortexed and sonicated to prepare a solution of 0.3 mg/mL. Mice were administered 1 mg/kg intravenously or 3 mg/kg orally, and then whole blood was collected for a certain period. Plasma was prepared. The drug concentration was analyzed by LC-MS/MS method, and the pharmacokinetic parameters were calculated by Phoenix WinNonlin software (Pharsight, USA).
Note: DMSO: dimethyl sulfoxide; HP-β-CD: hydroxypropyl-β-cyclodextrin.

[2] = tested on: human non-small cell lung cancer H358 cells; test: In vivo efficacy in mouse H358 subcutaneous xenograft model; conditions: BALB/c nude mouse, 30 mg/kg PO QD
Method: Animals were monitored daily for health and death. […] Animal deaths and side effects in each group were recorded based on the number of animals in each group. […] 5.

Chain of ERK2 kinase (P28482 whole entry): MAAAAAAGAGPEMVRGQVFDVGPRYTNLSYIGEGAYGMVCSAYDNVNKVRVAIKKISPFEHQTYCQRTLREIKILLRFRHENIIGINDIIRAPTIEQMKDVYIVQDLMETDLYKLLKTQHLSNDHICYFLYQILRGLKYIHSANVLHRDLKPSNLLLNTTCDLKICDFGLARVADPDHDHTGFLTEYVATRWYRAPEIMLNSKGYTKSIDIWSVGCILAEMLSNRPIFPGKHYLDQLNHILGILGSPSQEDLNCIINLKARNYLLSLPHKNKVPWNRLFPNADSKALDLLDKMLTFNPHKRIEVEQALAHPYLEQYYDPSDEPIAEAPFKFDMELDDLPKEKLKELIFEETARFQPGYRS

| Compound | IC50 (HT29 tumor cells) | IC50 (ERK2 kinase) | Oral DNAUC (AUCPO/Dose) [1] | Cmax [1] | also measured |
| --- | --- | --- | --- | --- | --- |
| Cn1nccc1Nc1nccc(-c2nc3c(s2)C(C)(C)N(Cc2cccc(Cl)c2)C3=O)n1 [WX001] | 14 nM | 0.24 nM | 2153 nM · h/mpk | 3360 nM | clearance [1]: 14.3 mL/min/kg; Vd [1]: 1.1 L/kg; bioavailability [1]: 86%; half-life [1]: 54 min |
| Cn1nccc1Nc1nccc(-c2nc3c(s2)C(C)(C)N(Cc2ccc(F)c(F)c2)C3=O)n1 [WX003] | 27 nM | 0.37 nM |  |  |  |
| Cn1nccc1Nc1nccc(-c2nc3c(s2)C(C)(C)N(Cc2cccc(F)c2)C3=O)n1 [WX002] | 24 nM | 0.35 nM |  |  |  |
| Cc1cc(Nc2ncc(C)c(-c3nc4c(s3)C(C)(C)N(Cc3cccc(F)c3)C4=O)n2)n(C)n1 [WX010] | 27 nM | 0.14 nM |  |  |  |
| COCCn1nccc1Nc1ncc(C)c(-c2nc3c(s2)C(C)(C)N(Cc2cccc(F)c2)C3=O)n1 [WX011] | 26 nM | 0.98 nM |  |  |  |
| CC1(C)c2sc(-c3ccnc(NC4CCOCC4)n3)nc2C(=O)N1Cc1cccc(F)c1 [WX004] | 35 nM | 0.25 nM |  |  |  |
| Cc1cnc(Nc2ccnn2C)nc1-c1nc2c(s1)C(C)(C)N(Cc1cccc(Cl)c1)C2=O [WX005] | 8 nM | 0.05 nM | 468 nM · h/mpk | 1030 nM |  |
| Cc1cnc(Nc2ccnn2C(F)F)nc1-c1nc2c(s1)C(C)(C)N(Cc1cccc(F)c1)C2=O [WX008] | 58 nM | 0.52 nM |  |  |  |
| COc1cc(Nc2ncc(C)c(-c3nc4c(s3)C(C)(C)N(Cc3cccc(F)c3)C4=O)n2)n(C)n1 [WX013] | 18 nM | 0.19 nM |  |  |  |
| CC1(C)c2sc(-c3ccnc(NC4CCOCC4)n3)nc2C(=O)N1Cc1cccc(Cl)c1 [WX007] | 26 nM | 0.39 nM |  |  |  |
| Cc1cnc(Nc2ccnn2C2CC2)nc1-c1nc2c(s1)C(C)(C)N(Cc1cccc(F)c1)C2=O [WX012] | 37 nM | 0.48 nM |  |  |  |
| [2H]C([2H])([2H])n1nccc1Nc1ncc(C)c(-c2nc3c(s2)C(C)(C)N(Cc2cccc(F)c2)C3=O)n1 [WX009] | 6 nM | 0.64 nM | 820 nM · h/mpk | 1170 nM | clearance [1]: 28 mL/min/kg; Vd [1]: 1.7 L/kg; bioavailability [1]: 67%; half-life [1]: 102 min |
| Cc1cnc(Nc2ccnn2C)nc1-c1nc2c(s1)C(C)(C)N(Cc1cccc(F)c1)C2=O [WX006] | 7 nM | 0.3 nM | 530 nM · h/mpk | 1040 nM | body weight of assay animals ([2]; to the 28th day): did not decrease significantly; morbidity or death ([2]; to the 28th day): no morbidity or death; TGI (inhibition rate of tumor growth) ([2]; H358 xenograft, 28th day): 94%; clearance [1]: 23 mL/min/kg; Vd [1]: 1.7 L/kg; bioavailability [1]: 34%; half-life [1]: 60 min |
